Four compounds from patent publication US9708293B2, “N-(pyridin-2-yl)pyrimidin-4-amine derivatives containing a sulfone group” (BAYER PHARMA AKTIENGESELLSCHAFT, priority 2012, dated 2017) can be followed below.

A value given as a limit tells only on which side of the number the result lay.

In experiment [1] the target is T1, CDK2/CycE (Homo sapiens, UniProt P24941).
T1 construct: GST; purchased ProQinase GmbH (Freiburg, Germany); host or cells: insect cells (Sf9)
In words: CDK2/CycE high ATP kinase assay (Method 2b). The experiment is classed as biochemical. The settings on record: 2 mM ATP, read-out: high ATP CDK2: CDK2/CycE1 kinase assay IC50. How it is done: 2b. CDK2/CycE High ATP Kinase Assay
CDK2/CycE-inhibitory activity of compounds of the present invention at 2 mM adenosine-tri-phosphate (ATP) was quantified employing the CDK2/CycE TR-FRET (TR-FRET=Time Resolved Fluorescence Energy Transfer) assay as described in the following paragraphs.
Recombinant fusion proteins of GST and human CDK2 and of GST and human CycE, expressed in insect cells (Sf9) and purified by Glutathion-Sepharose affinity chromatography, were purchase from ProQinase GmbH (Freiburg, Germany). As substrate for the kinase reaction biotinylated peptide biotin-Ttds-YISPLKSPYKISEG (C-terminus in amid form) was used which can be purchased e.g. form the company JERINI peptide technologies (Berlin, Germany).
For the assay 50 nl of a 100 fold concentrated solution of the test compound in DMSO was pipetted into a black low volume 384 well microtiter plate (Greiner Bio-One, Frickenhausen, Germany), 2 μl of a solution of CDK2/CycE in aqueous assay buffer [50 mM Tris/HCl pH 8.0, 10 mM MgCl2, 1.0 mM dithiothreitol, 0.1 mM sodium ortho-vanadate, 0.01% (v/v) Nonidet-P40 (Sigma)] were added and the mixture was incubated for 15 min at 22° C. to allow pre-binding of the test compounds to the enzyme before the start of the kinase reaction. Then the kinase reaction was started by the addition of 3 μl of a solution ATP (3.33 mM=>final conc. in the 5 μl assay volume is 2 mM) and substrate (1.25 μM=>final conc. in the 5 μl assay volume is 0.75 μM) in assay buffer and the resulting mixture was incubated for a reaction time of […] at 22° C. The concentration of CDK2/CycE was adjusted depending of the activity of the enzyme lot and was chosen appropriate to have the assay in the linear range, typical concentrations were in the range of 15 ng/ml. […]
The resulting mixture was incubated 1 h at 22° C. to allow the formation of complex between the phosphorylated biotinylated peptide and the detection reagents. Subsequently the amount of phosphorylated substrate was evaluated by measurement of the resonance energy transfer from the Eu-chelate to the streptavidine-XL. Therefore, the fluorescence emissions at 620 nm and 665 nm after excitation at 350 nm wer measured in a TR-FRET reader, e.g. a Rubystar (BMG Labtechnologies, Offenburg, Germany) or a Viewlux (Perkin-Elmer). […]

For experiment [2], the system named is HeLa cells. In words: Proliferation assay, HeLa. The class given is cell-based. The settings on record: Homo sapiens, 96 h, 4 days, crystal violet, read-out: Inhibition of HeLa cell proliferation IC50. The procedure: (§1) Cultivated tumour cells (HeLa, human cervical tumour cells, ATCC CCL-2; NCI-H460, human non-small cell lung carcinoma cells, ATCC HTB-177; A2780, human ovarian carcinoma cells, ECACC #93112519; DU 145, hormone-independent human prostate carcinoma cells, ATCC HTB-81; HeLa-MaTu-ADR, multidrug-resistant human cervical carcinoma cells, EPO-GmbH Berlin; Caco-2, human colorectal carcinoma cells, ATCC HTB-37; B16F10, mouse melanoma cells, ATCC CRL-6475) were plated at a density of 5,000 cells/well (DU145, HeLa-MaTu-ADR), 3,000 cells/well (NCI-H460, HeLa), 2,500 cells/well (A2780), 1,500 cells/well (Caco-2), or 1,000 cells/well (B16F10) in a 96-well multititer plate in 200 μL of their respective growth medium supplemented 10% fetal calf serum. After 24 hours, the cells of one plate (zero-point plate) were stained with crystal violet (see below), while the medium of the other plates was replaced by fresh culture medium (200 μl), to which the test substances were added in various concentrations (0 μM, as well as in the range of 0.001-10 μM; the final concentration of the solvent dimethyl sulfoxide was 0.5%). The cells were incubated for 4 days in the presence of test substances. Cell proliferation was determined by staining the cells with crystal violet: the cells were fixed by adding 20 μl/measuring point of an 11% glutaric aldehyde solution for 15 minutes at room temperature. After three washing cycles of the fixed cells with water, the plates were dried at room temperature. The cells were stained by adding 100 μl/measuring point of a 0.1% crystal violet solution (pH 3.0). After three washing cycles of the stained cells with water, the plates were dried at room temperature. The dye was dissolved by adding 100 μl/measuring point of a 10% acetic acid solution. The extinction was determined by photometry at a wavelength of 595 nm. The change of cell number, in percent, was calculated by normalization of the measured values to the extinction values of the zero-point plate (=0%) and the extinction of the untreated (0 μm) cells (=100%). […]

For experiment [3], the system named is NCI-H460 cells. In words: Proliferation assay, NCI-H460. The class given is cell-based. To be noted: Homo sapiens, NCI-H460, 96 h; 4 days, crystal violet; read-out: Inhibition of NCI-H460 cell proliferation IC50. How it is done:
as §1

In experiment [4] the test system is Caco-2 cells. Nature of the experiment: Proliferation assay, Caco-2. The class given is cell-based. To be noted: Homo sapiens, Caco-2, 96 h; 4 days, crystal violet; read-out: Inhibition of Caco-2 cell proliferation IC50. The procedure: as §1
The subject of experiment [5] is B16F10 cells. Nature of the experiment: Proliferation assay, B16F10. The class given is cell-based. The settings on record: Mus musculus, B16-F10, 96 h; 4 days, crystal violet; read-out: Inhibition of B16F10 cell proliferation IC50. The procedure:
as §1

`COc1cc(F)ccc1-c1cc(Nc2cc(CS(C)(=O)=O)cc(C(F)(F)F)n2)ncn1` [Example 3, 6-(4-Fluoro-2-methoxyphenyl)-N-{4-[(methylsulfonyl)methyl]-6-(trifluoromethyl)pyridin-2-yl}pyrimidin-4-amine]: the IC50 in experiment [1] amounted to 371 nM; in experiment [2], 24 nM; in experiment [3], 55 nM; in experiment [4] it was 52 nM; in experiment [5], 34 nM.

`COc1cc(F)ccc1-c1cc(Nc2cc(CS(C)(=O)=O)cc(F)n2)ncn1` [Example 4, 6-(4-Fluoro-2-methoxyphenyl)-N-{6-fluoro-4-[(methylsulfonyl)methyl]pyridin-2-yl}pyrimidin-4-amine]: the IC50 in experiment [1] came out at 1870 nM.

With `COc1cc(F)ccc1-c1cc(Nc2cc(CS(C)(=O)=O)cc(C)n2)ncn1` [Example 2, 6-(4-Fluoro-2-methoxyphenyl)-N-{6-methyl-4-[(methylsulfonyl)methyl]pyridin-2-yl}pyrimidin-4-amine], the IC50 in experiment [1] came out at 2250 nM; in experiment [2], 76 nM; in experiment [3], 95 nM; in experiment [4] it was 91 nM; in experiment [5] it was 101 nM.

As for `COc1cc(F)ccc1-c1cc(Nc2cc(CS(C)(=O)=O)ccn2)ncn1` [Example 1, 6-(4-Fluoro-2-methoxyphenyl)-N-{4-[(methylsulfonyl)methyl]pyridin-2-yl}pyrimidin-4-amine], the IC50 was no less than 20000 nM in experiment [1]; 101 nM in experiment [2]; 317 nM in experiment [3]; 341 nM in experiment [4]; 289 nM in experiment [5].
